Blank lines part the entries; values can stand above or below the molecule they belong to.
Assays:
Format in all cases: biochemical
ZmHXK6Δ30 [1] = target: T1, ZmHXK6Δ30 (Zea mays, UniProt A0A1D6NCX2); assay: coupled pyruvate kinase/lactate dehydrogenase NADH assay, A340; conditions: read-out: Substrate / Mannose; 2 mM ATP, 2 mM MgCl2, pH 8.0
T1 construct: gene LOC103651223; N-terminal mitochondrial anchor deleted (87 nucleotides after the start codon, first 30 residues); E. coli BL21-CodonPlus(DE3)-RIL
From the text: coupled pyruvate kinase/lactate dehydrogenase NADH assay, A340 on ZmHXK6Δ30

ZmHXK4Δ30 [2] = target: T2, ZmHXK4Δ30 (Zea mays, UniProt K7VX77); assay: as above; conditions: read-out: Substrate / Mannose; 2 mM ATP, 2 mM MgCl2, pH 8.0
T2 construct: gene LOC542510; N-terminal mitochondrial anchor deleted (87 nucleotides after the start codon, first 30 residues); E. coli BL21-CodonPlus(DE3)-RIL
From the text: coupled pyruvate kinase/lactate dehydrogenase NADH assay, A340 on ZmHXK4Δ30

ZmHXK5Δ30 [3] = target: T3, ZmHXK5Δ30 (Zea mays, UniProt A0A1D6MAK9); assay: as above; conditions: read-out: Substrate / Mannose; 2 mM ATP, 2 mM MgCl2, pH 8.0
T3 construct: N-terminal mitochondrial anchor deleted (87 nucleotides after the start codon, first 30 residues); E. coli BL21-CodonPlus(DE3)-RIL
From the text: coupled pyruvate kinase/lactate dehydrogenase NADH assay, A340 on ZmHXK5Δ30

ZmHXK5Δ30 [4] = target: T3, ZmHXK5Δ30; assay: coupled G6PDH/NADP+ assay, A340; conditions: 2 mM MgCl2, pH 8.0
From the text: coupled G6PDH/NADP+ assay, A340 on ZmHXK5Δ30

ZmHXK6Δ30 [5] = target: T1, ZmHXK6Δ30; assay: coupled G6PDH/NADP+ assay, A340; conditions: 2 mM MgCl2, pH 8.0
From the text: coupled G6PDH/NADP+ assay, A340 on ZmHXK6Δ30

ZmHXK4Δ30 [6] = target: T2, ZmHXK4Δ30; assay: coupled G6PDH/NADP+ assay, A340; conditions: 2 mM MgCl2, pH 8.0
From the text: coupled G6PDH/NADP+ assay, A340 on ZmHXK4Δ30

ZmHXK8 = target: T4, ZmHXK8 (Zea mays, UniProt B4FB85); assay: coupled G6PDH/NADP+ assay, A340; conditions: 50 mM Glc, 2 mM ATP, 2 mM MgCl2, pH 8.0; product inhibition; PEP/pyruvate kinase listed in the reaction medium; read-out: ADP
T4 construct: full length, soluble; E. coli BL21-CodonPlus(DE3)-RIL
From the text: coupled G6PDH/NADP+ assay, A340 on ZmHXK8

ZmHXK7 = target: T5, ZmHXK7 (Zea mays, UniProt C0HF79); assay: coupled G6PDH/NADP+ assay, A340; conditions: 5 mM Glc, 2 mM ATP, 2 mM MgCl2, pH 8.0; product inhibition; PEP/pyruvate kinase listed in the reaction medium; read-out: ADP
T5 construct: full length, soluble; E. coli BL21-CodonPlus(DE3)-RIL
From the text: coupled G6PDH/NADP+ assay, A340 on ZmHXK7

[7] = read-out: Substrate / ATP, 5 mM Glc
[8] = 5 mM Glc, 2 mM ATP, product inhibition, PEP/pyruvate kinase listed in the reaction medium, read-out: ADP
[9] = read-out: Substrate / Glucose, 2 mM ATP

Km (ZmHXK6Δ30 [1]): 48.9 ± 1.06 µM
Km (ZmHXK4Δ30 [2]): 139 ± 22.4 µM
Km (ZmHXK5Δ30 [3]): 120 ± 33.3 µM
Structure (SMILES): OC[C@H]1OC(O)[C@@H](O)[C@@H](O)[C@@H]1O (some centres unmarked) [mannose]

Km (ZmHXK5Δ30 [4]; [7]): 136 ± 11.5 µM
Km (ZmHXK6Δ30 [5]; [7]): 199 ± 12.8 µM
Km (ZmHXK4Δ30 [6]; [7]): 135 ± 25.7 µM
Structure (SMILES): Nc1ncnc2c1ncn2[C@@H]1O[C@H](COP(=O)(O)OP(=O)(O)OP(=O)(O)O)[C@@H](O)[C@H]1O [ATP]

IC50 (ZmHXK5Δ30 [4]; [8]): 690 ± 150 µM
IC50 (ZmHXK6Δ30 [5]; [8]): 720 ± 140 µM
IC50 (ZmHXK4Δ30 [6]; [8]): 710 ± 150 µM
IC50 (ZmHXK8): 3120 ± 1140 µM
IC50 (ZmHXK7): 6470 ± 1140 µM
Structure (SMILES): Nc1ncnc2c1ncn2[C@@H]1O[C@H](COP(=O)(O)OP(=O)(O)O)[C@@H](O)[C@H]1O [ADP]

Km (ZmHXK5Δ30 [4]; [9]): 137 ± 20 µM
Km (ZmHXK6Δ30 [5]; [9]): 65.9 ± 15.2 µM
Km (ZmHXK4Δ30 [6]; [9]): 196 ± 32 µM
Structure (SMILES): OC[C@H]1OC(O)[C@H](O)[C@@H](O)[C@@H]1O (some centres unmarked) [glucose]
